Measured values as given in ChEMBL document CHEMBL1154763, “Antitrypanosomal activity of 1,2-dihydroquinolin-6-ols and their ester derivatives” (J Med Chem, 2010).
Active and inactive are the calls of the source. The calls are words filed in the database; no cut-off is given here.

Legend:
[1] = system: Trypanosoma brucei rhodesiense; assay: Antitrypanosomal activity against bloodstream Trypanosoma brucei rhodesiense STIB 900 after 70 hrs by alamar blue assay; type: functional, organism-based; conditions: STIB 900, 70 h
L6 = assay: Cytotoxicity against rat L6 cells after 70 hrs by alamar blue assay; type: cell-based; conditions: L6, 70 h, read-out: IC50
[2] = Selectivity index, ratio of IC50 for rat L6 cells to IC50 for bloodstream Trypanosoma brucei rhodesiense STIB 900; type: toxicity, cell-based; conditions: read-out: Ratio IC50
[3] = system: Trypanosoma brucei brucei; assay: Induction of reactive oxygen species generation in Trypanosoma brucei brucei MITat1,2,variant 221 preincubated for 24 hrs by CM-H2DCFDA fluorescence assay
[4] = system: Trypanosoma brucei brucei; assay: Antitrypanosomal activity against Trypanosoma brucei brucei STIB 795 infected in NMRI mouse African trypanosomiasis model assessed as parasite free mouse survival at 50 mg/kg, ip qd administered for 4 consecutive days from day 3 to 6 postinfection measured up to 30 days
Mus musculus = assay: Toxicity in Trypanosoma brucei STIB795 infected in NMRI mouse African trypanosomiasis model assessed as overt signs of at 50 mg/kg, ip qd administered for 4 consecutive days from day 3 to 6 postinfection measured up to 30 days; conditions: in vivo, 720 h

SMILES	IC50 [1] [µM]	IC50 (L6) [µM]	selectivity ratio [2]	Activity [3]	Survival ([4]; route intraperitoneal) [days]	Activity (Mus musculus)	Survival [4]
CC1=CC(C)(C)N(Cc2ccncc2)c2ccc(O)cc21	0.34	13	39	–	–	–	–
CC(=O)Oc1ccc2c(c1)C(C)=CC(C)(C)N2C(C)=O	5.3	160	29	–	–	–	–
CC1=CC(C)(C)Nc2ccc(OCc3ccc(C(F)(F)F)cc3)cc21	4.5	48	11	–	–	–	–
COc1cc(OC)cc(C(=O)Oc2ccc3ncccc3c2)c1	89	200	2	–	–	–	–
CC(=O)Oc1ccc2c(c1)C(C)=CC(C)(C)N2Cc1ccc(Cl)cc1	0.18	22	120	–	–	–	–
CC1(C)C=Cc2cc(O)ccc2N1Cc1ccccc1	0.13	5.5	42	–	–	–	–
CC1=CC(C)(C)N(Cc2ccccc2)c2ccc(OC(=O)c3ccccc3)cc21	0.013	> 240	> 18000	–	–	–	–
COc1ccc(COc2ccc3c(c2)C(C)=CC(C)(C)N3)cc1	5.2	77	15	–	–	–	–
COc1ccc(CN2c3ccc(OC(C)=O)cc3C(C)=CC2(C)C)cc1	0.048	15	310	–	–	–	–
CC(=O)Oc1ccc2c(c1)C(C)=CC(C)(C)N2Cc1ccccc1	0.014	24	1700	Dose-dependent effect	>14	Non-toxic	–
CC1=CC(C)(C)N(Cc2ccccc2)c2ccc(OC(=O)C(C)(C)C)cc21	0.028	170	6000	–	–	–	–
CC(=O)Oc1ccc2c(c1)C(C)=CC(C)(C)N2Cc1ccc(F)cc1	0.041	29	710	–	8.75	Non-toxic	–
COc1cc(OC)cc(C(=O)Oc2ccc3c(c2)C(C)=CC(C)(C)N3)c1	0.054	16	300	–	–	–	inactive
CC(=O)Oc1ccc2c(c1)C(C)=CC(C)(C)N2Cc1ccc(C)cc1	0.39	21	54	–	–	–	–
CC(=O)Oc1ccc2c(c1)C(C)=CC(C)(C)N2Cc1cccc(Cl)c1	0.039	29	740	–	–	–	–
CC1=CC(C)(C)Nc2ccc(OCCc3ccccc3)cc21	3.7	83	22	–	–	–	–

More lines, in order of falling IC50 [1], values ahead:

IC50 [1] [µM]	SMILES	IC50 (L6) [µM]	selectivity ratio [2]	Activity [3]	Survival ([4]; route intraperitoneal) [days]	Activity (Mus musculus)	Survival [4]
80	O=C(Oc1ccc2ncccc2c1)c1ccc2c(c1)OCO2	40	0.5	–	–	–	–
11	COc1cccc(COc2ccc3c(c2)C(C)=CC(C)(C)N3)c1	61	5	–	–	–	–
3.6	CC1=CC(C)(C)N(Cc2cccc(C(F)(F)F)c2)c2ccc(OCc3cccc(C(F)(F)F)c3)cc21	> 180	> 50	–	–	–	–
1.4	CC(=O)Oc1ccc2c(c1)C(C)=CC(C)(C)N2C	41	29	–	–	–	–
1.1	CC1=CC(C)(C)N(Cc2ccccn2)c2ccc(O)cc21	18	17	–	–	–	–
0.67	CC(=O)Oc1ccc2c(c1)C(C)=CC(C)(C)N2Cc1ccc(C(C)(C)C)cc1	9	13	–	–	–	–
0.17	COc1ccc(CN2c3ccc(O)cc3C(C)=CC2(C)C)cc1	6.2	37	–	–	–	–
0.1	COc1cc(CN2c3ccc(OC(C)=O)cc3C(C)=CC2(C)C)cc(OC)c1	25	240	–	–	–	–
0.058	CC1=CC(C)(C)N(Cc2ccc(C)cc2)c2ccc(O)cc21	8.1	140	–	–	–	–
0.041	CC(=O)Oc1ccc2c(c1)C(C)=CC(C)(C)N2Cc1cccc(C(F)(F)F)c1	27	660	–	–	–	–
0.033	COc1cc(OC)cc(C(=O)Oc2ccc3c(c2)C(C)=CC(C)(C)N3Cc2ccc(C)cc2)c1	> 200	> 6000	–	–	–	–
0.007	CC1=CC(C)(C)N(Cc2ccccc2)c2ccc(O)cc21	6.8	970	–	–	–	–
